pKi: −log10 of the molar value. Values belong to the molecule of their own block, whether it stands above or below them.
Experiments:
[1] = molecular target: T1, fructose-1,6-bisphosphatase (LmFBPase) (Leishmania major, UniProt O97193); test: co-crystal structure ([…] Å) with F6P; coupled enzyme assay Ki; format: biochemical; set-up: gene FBP; C-terminal His6-tagged LmFBPase, homotetramer
T1 sequence (O97193 1-351): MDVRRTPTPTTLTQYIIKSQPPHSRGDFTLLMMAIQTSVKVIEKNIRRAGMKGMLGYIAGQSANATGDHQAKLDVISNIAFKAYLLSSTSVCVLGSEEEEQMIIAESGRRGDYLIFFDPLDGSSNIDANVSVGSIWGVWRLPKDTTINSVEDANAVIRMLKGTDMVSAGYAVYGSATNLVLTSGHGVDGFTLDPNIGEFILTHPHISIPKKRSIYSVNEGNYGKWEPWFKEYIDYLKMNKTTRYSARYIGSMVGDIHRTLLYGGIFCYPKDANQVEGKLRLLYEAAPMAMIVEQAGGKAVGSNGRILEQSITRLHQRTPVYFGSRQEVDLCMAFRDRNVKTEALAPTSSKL

[2] = molecular target: T2, fructose-1,6-bisphosphatase (LmFBPase) (Leishmania major, UniProt O97193); test: PGI/G6PDH coupled enzyme activity assay; format: biochemical
T2 construct: gene FBP; C-terminal His6-tagged LmFBPase

[3] = molecular target: T1, fructose-1,6-bisphosphatase (LmFBPase); test: co-crystal structure ([…] Å) with AMP; thermal shift; format: binding; set-up: gene FBP; C-terminal His6-tagged LmFBPase, homotetramer
[4] = molecular target: T1, fructose-1,6-bisphosphatase (LmFBPase); set-up: gene FBP

Compound: Nc1ncnc2c1ncn2[C@@H]1O[C@H](COP(=O)(O)O)[C@@H](O)[C@H]1O [AMP]
pKi [1]: 4.20

pKi [2]: 5.72
Compound: O=P(O)(O)OC[C@H]1O[C@@](CO)(OP(=O)(O)O)[C@@H](O)[C@@H]1O [Fructose 2,6-bisphosphate]

Compound: O=P(O)(O)OC[C@H]1OC(O)(CO)[C@@H](O)[C@@H]1O (stereo partly shown) [fructose 6-phosphate]
co-crystal structure (2.62 Å) with AMP; thermal shift [3]: The catalytic product F6P was found in each of the active sites of the four subunits

Compound: O=P(O)(O)O [phosphate]
co-crystal structure (2.8 Å) with Mn2+ [4]: a catalytic product Pi and manganese atoms were found in each active site
